Source: US7138361B2, “Herbicidal heterocycles” (E. I. du Pont de Nemours and Company, priority 2000, dated 2006)

Key:
Assay type in all cases: in vivo
Sunflower [1] = assay: Test C preemergence; settings: visual evaluation after 12 to 14 days
[2] = system: johnsongrass (Sorghum halepense); assay: Test C preemergence; settings: for Plant response rating (0 to 100), Johnsongrass: visual evaluation after 12 to 14 days
Method in brief: (§1)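 Test chemicals, formulated in a non-phytotoxic solvent mixture with surfactant, were applied preemergence to planted seeds or postemergence to plants 2 to 18 cm tall (1- to 4-leaf stage). After 12 to 14 days in a greenhouse, injury was visually rated against untreated controls on a 0–100 scale.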

Sunflower [3] = assay: Test C preemergence
[4] = system: velvetleaf (Abutilon theophrasti); assay: Test C preemergence; settings: for Plant response rating (0 to 100), Velvetleaf: visual evaluation after 12 to 14 days
Method in brief: as §1

[5] = system: morningglory (Ipomoea hederacea); assay: Test C preemergence; settings: for Plant response rating (0 to 100), Morningglory: visual evaluation after 12 to 14 days
Method in brief: as §1

corn (Zea mays) [6] = assay: Test C preemergence; settings: for Plant response rating (0 to 100), Corn: visual evaluation after 12 to 14 days
Method in brief: as §1

[7] = system: yellow nutsedge (Cyperus esculentus); assay: Test C preemergence; settings: for Plant response rating (0 to 100), Nutsedge: visual evaluation after 12 to 14 days
Method in brief: as §1

kochia (Kochia scoparia) = assay: Test C preemergence
Method in brief: as §1

[8] = system: bermudagrass (Cynodon dactylon); assay: Test C preemergence; settings: for Plant response rating (0 to 100 where 0 is no effect and 100 is complete control), Bermudagrass: visual evaluation after 12 to 14 days
Method in brief: as §1

[9] = system: giant foxtail (Setaria faberii); assay: Test C preemergence; settings: for Plant response rating (0 to 100), Foxtail, Giant: visual evaluation after 12 to 14 days
Method in brief: as §1

[10] = system: crabgrass (Digitaria sanguinalis); assay: Test B postemergence; settings: 13 to 15 days
Method in brief: (§2)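 Post-treatment, species sat 13–15 days under greenhouse conditions before visual scoring against controls, 0 (no effect) through 100 (complete control). Application preemergence to sown seeds or postemergence at 1- to 4-leaf stage, using a non-phytotoxic solvent/surfactant formulation.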

[11] = system: blackgrass (Alopecurus myosuroides); assay: Test B postemergence; settings: 13 to 15 days
Method in brief: as §2

[12] = system: wheat (Triticum aestivum); assay: Test B postemergence; settings: 13 to 15 days
Method in brief: as §2

[13] = system: lambsquarters (Chenopodium album); assay: Test B postemergence; settings: 13 to 15 days
Method in brief: as §2

[14] = system: velvetleaf (Abutilon theophrasti); assay: Test B postemergence; settings: 13 to 15 days
Method in brief: as §2

corn (Zea mays) [15] = assay: Test B postemergence; settings: 13 to 15 days
Method in brief: as §2

[16] = system: morning glory (Ipomoea hederacea); assay: Test B postemergence; settings: 13 to 15 days
Method in brief: as §2

[17] = system: pigweed (Amaranthus retroflexus); assay: Test B postemergence; settings: 13 to 15 days
Method in brief: as §2

[18] = system: barnyardgrass (Echinochloa crus-galli); assay: Test B postemergence; settings: 13 to 15 days
Method in brief: as §2

[19] = system: Surinam grass (Brachiaria decumbens); assay: Test B postemergence; settings: 13 to 15 days
Method in brief: as §2

wild oat (Avena fatua) = assay: Test B postemergence; settings: 13 to 15 days
Method in brief: as §2

[20] = system: giant foxtail (Setaria faberii); assay: Test B postemergence; settings: 13 to 15 days
Method in brief: as §2

[21] = system: cocklebur (Xanthium strumarium); assay: Test B postemergence; settings: 13 to 15 days
Method in brief: as §2

[22] = Rate 125 g/ha, scale 0 to 100, 0 no effect, 100 complete control
[23] = preemergence, Rate 62 g/ha, scale 0 to 100
[24] = preemergence, Rate 250 g/ha, scale 0 to 100, 0 no effect, 100 complete control
[25] = Rate 125 g/ha, scale 0 (no effect) to 100 (complete control)
[26] = Rate 500 g/ha, scale 0 to 100, 0 is no effect, 100 is complete control
[27] = Preemergence, Rate 500 g/ha, scale 0 to 100
[28] = Rate 62 g/ha, scale 0 to 100, 0 no effect, 100 complete control
[29] = preemergence, Rate 125 g/ha, scale 0 to 100, 0 no effect, 100 complete control

## CCCC(C)c1ccn(C2SCN(c3cccc(C(F)(F)F)c3)C2=O)n1 (stereo not drawn) [Compound 92]
Sunflower [1]; Rate 500 g/ha
  Plant response rating (0 to 100), Sunflower: 55
[2]; [22]
  Plant response rating, Johnsongrass: 65
[2]; [23]
  Plant response rating, Johnsongrass: 50
[2]; preemergence, Rate 500 g/ha
  Plant response rating (0 to 100), Johnsongrass: 100
[2]; [24]
  Plant response rating, Johnsongrass: 70
Sunflower [3]; [22]
  Plant response rating, Sunflower: 0
[4]; [22]
  Plant response rating, Velvetleaf: 0
[4]; [23]
  Plant response rating, Velvetleaf: 0
[4]; preemergence, Rate 500 g/ha
  Plant response rating (0 to 100), Velvetleaf: 0
[4]; [24]
  Plant response rating, Velvetleaf: 0
[5]; [22]
  Plant response rating, Morningglory: 0
[5]; [23]
  Plant response rating, Morningglory: 0
[5]; preemergence, Rate 500 g/ha
  Plant response rating (0 to 100), Morningglory: 0
[5]; [24]
  Plant response rating, Morningglory: 0
Corn (Zea mays) [6]; [22]
  Plant response rating, Corn: 10
Corn (Zea mays) [6]; [23]
  Plant response rating, Corn: 0
Corn (Zea mays) [6]; preemergence, Rate 500 g/ha
  Plant response rating (0 to 100), Corn: 40
Corn (Zea mays) [6]; [24]
  Plant response rating, Corn: 30
[7]; [22]
  Plant response rating, Nutsedge: 0
[7]; [23]
  Plant response rating, Nutsedge: 0
[7]; preemergence, Rate 500 g/ha
  Plant response rating (0 to 100), Nutsedge: 0
[7]; [24]
  Plant response rating, Nutsedge: 0
Kochia (Kochia scoparia); [22]
  Plant response rating, Kochia: 40
Kochia (Kochia scoparia); [23]
  Plant response rating, Kochia: 0
Kochia (Kochia scoparia); preemergence, Rate 500 g/ha, visual evaluation after 12 to 14 days
  Plant response rating (0 to 100), Kochia: 100
Kochia (Kochia scoparia); [24]
  Plant response rating, Kochia: 70
[8]; [22]
  Plant response rating, Bermudagrass: 20
[8]; [23]
  Plant response rating, Bermudagrass: 20
[8]; preemergence, Rate 500 g/ha
  Plant response rating (0 to 100 where 0 is no effect and 100 is complete control), Bermudagrass: 90
[8]; [24]
  Plant response rating, Bermudagrass: 85
[9]; [22]
  Plant response rating, Foxtail, Giant: 0
[9]; [23]
  Plant response rating, Foxtail, Giant: 20
[9]; preemergence, Rate 500 g/ha
  Plant response rating (0 to 100), Foxtail, Giant: 100
[9]; [24]
  Plant response rating, Foxtail, Giant: 100
[10]; [25]
  Plant response rating, Crabgrass: 10
[10]; [26]
  Plant response rating, Crabgrass: 50
[11]; [25]
  Plant response rating, Blackgrass: 0
[11]; [26]
  Plant response rating, Blackgrass: 0
[12]; [26]
  Plant response rating, Wheat: 0
[13]; [26]
  Plant response rating, Lambsquarters: 90
[14]; [26]
  Plant response rating, Velvetleaf: 20
Corn (Zea mays) [15]; [25]
  Plant response rating, Corn: 0
Corn (Zea mays) [15]; [26]
  Plant response rating, Corn: 10
[16]; [26]
  Plant response rating, Morningglory: 50
[17]; [26]
  Plant response rating, Pigweed: 60
[18]; [25]
  Plant response rating, Barnyardgrass: 0
[18]; [26]
  Plant response rating, Barnyardgrass: 70
[19]; [25]
  Plant response rating, Surinam grass: 0
[19]; [26]
  Plant response rating, Surinam grass: 10
Wild oat (Avena fatua); [26]
  Plant response rating, Wild Oat: 0
[20]; [25]
  Plant response rating, Foxtail, Giant: 0
[20]; [26]
  Plant response rating, Foxtail, Giant: 30
[21]; [25]
  Plant response rating, Cocklebur: 20
[21]; [26]
  Plant response rating, Cocklebur: 80

## CC(C)c1ccn(C2SCN(c3cccc(OC(F)(F)F)c3)C2=O)n1 (stereo not drawn) [Compound 31]
Sunflower [1]; Rate 250 g/ha
  Plant response rating (0 to 100), Sunflower: 40
[2]; [27]
  Plant response rating, Johnsongrass: 100
[2]; [28]
  Plant response rating, Johnsongrass: 30
[2]; preemergence, Rate 250 g/ha
  Plant response rating (0 to 100), Johnsongrass: 90
[2]; [29]
  Plant response rating, Johnsongrass: 60
Sunflower [3]; [28]
  Plant response rating, Sunflower: 20
Sunflower [3]; Rate 500 g/ha, scale 0 to 100
  Plant response rating, Sunflower: 40
[4]; [27]
  Plant response rating, Velvetleaf: 30
[4]; [28]
  Plant response rating, Velvetleaf: 0
[4]; preemergence, Rate 250 g/ha
  Plant response rating (0 to 100), Velvetleaf: 30
[4]; [29]
  Plant response rating, Velvetleaf: 0
[5]; [27]
  Plant response rating, Morningglory: 50
[5]; [28]
  Plant response rating, Morningglory: 30
[5]; preemergence, Rate 250 g/ha
  Plant response rating (0 to 100), Morningglory: 40
[5]; [29]
  Plant response rating, Morningglory: 30
Corn (Zea mays) [6]; [27]
  Plant response rating, Corn: 60
Corn (Zea mays) [6]; [28]
  Plant response rating, Corn: 40
Corn (Zea mays) [6]; preemergence, Rate 250 g/ha
  Plant response rating (0 to 100), Corn: 40
Corn (Zea mays) [6]; [29]
  Plant response rating, Corn: 40
[7]; [27]
  Plant response rating, Nutsedge: 90
[7]; [28]
  Plant response rating, Nutsedge: 40
[7]; preemergence, Rate 250 g/ha
  Plant response rating (0 to 100), Nutsedge: 70
[7]; [29]
  Plant response rating, Nutsedge: 50
[8]; [27]
  Plant response rating, Bermudagrass: 100
[8]; [28]
  Plant response rating, Bermudagrass: 90
[8]; preemergence, Rate 250 g/ha
  Plant response rating (0 to 100 where 0 is no effect and 100 is complete control), Bermudagrass: 100
[8]; [29]
  Plant response rating, Bermudagrass: 100
[9]; [27]
  Plant response rating, Foxtail, Giant: 100
[9]; [28]
  Plant response rating, Foxtail, Giant: 40
[9]; preemergence, Rate 250 g/ha
  Plant response rating (0 to 100), Foxtail, Giant: 60
[9]; [29]
  Plant response rating, Foxtail, Giant: 50
[10]; [25]
  Plant response rating, Crabgrass: 0
[10]; [26]
  Plant response rating, Crabgrass: 40
[11]; [25]
  Plant response rating, Blackgrass: 0
[11]; [26]
  Plant response rating, Blackgrass: 0
[12]; [25]
  Plant response rating, Wheat: 0
[12]; [26]
  Plant response rating, Wheat: 0
[13]; [25]
  Plant response rating, Lambsquarters: 70
[13]; [26]
  Plant response rating, Lambsquarters: 80
[14]; [25]
  Plant response rating, Velvetleaf: 0
[14]; [26]
  Plant response rating, Velvetleaf: 0
Corn (Zea mays) [15]; [25]
  Plant response rating, Corn: 0
Corn (Zea mays) [15]; [26]
  Plant response rating, Corn: 0
[16]; [25]
  Plant response rating, Morningglory: 10
[16]; [26]
  Plant response rating, Morningglory: 30
[17]; [25]
  Plant response rating, Pigweed: 20
[17]; [26]
  Plant response rating, Pigweed: 60
[18]; [25]
  Plant response rating, Barnyardgrass: 100
[18]; [26]
  Plant response rating, Barnyardgrass: 100
[19]; [25]
  Plant response rating, Surinam grass: 0
[19]; [26]
  Plant response rating, Surinam grass: 0
Wild oat (Avena fatua); [25]
  Plant response rating, Wild Oat: 0
Wild oat (Avena fatua); [26]
  Plant response rating, Wild Oat: 0
[20]; [25]
  Plant response rating, Foxtail, Giant: 0
[20]; [26]
  Plant response rating, Foxtail, Giant: 20
[21]; [25]
  Plant response rating, Cocklebur: 60
[21]; [26]
  Plant response rating, Cocklebur: 70
